According to PMC10135033, “Sulfonamidoboronic Acids as “Cross-Class” Inhibitors of an Expanded-Spectrum Class C Cephalosporinase, ADC-33, and a Class D Carbapenemase, OXA-24/40: Strategic Compound Design to Combat Resistance in Acinetobacter baumannii” (Antibiotics, 2023):
Where two headings read alike, the source gives them in different places.

Key:
Format in all cases: cell-based
[1] = tested on: A. baumannii ATCC 17978 native ADC KO, OXA-24 pWH1266; assay: Antimicrobial susceptibility testing, broth microdilution; details: Acinetobacter baumannii
Experimental: (§1) The inhibitory effects of both compounds were tested against ADC-33 and OXA-24/-40 in A. baumannii, their native host. ATCC 17978, with its intrinsic chromosomal ADC knocked out (intrinsic OXA still present), was used in these experiments. In this isolate, the ADC MICs were not lowered by the inhibitors as much as they were against the E. coli background (Table 4).
(§2) pWH1266 is a vector that replicates in A. baumannii, and the […] pWH1266 construct was generated as follows. The TEM gene was removed using inverse PCR, and an Xba1 site was engineered into the vector. blaOXA-24/40 and its upstream XerC/XerD were amplified from strain NM55. The amplified gene was cloned into the Xba1 site of the altered pWH1266 vector. The construct was confirmed using PCR and sequencing. Both blaADC-33 pQF1266 and […] pWH1266 were then expressed in A. baumannii ATCC 17978 that had the intrinsic chromosomal ADC gene knocked out.
(§3) The chromosomal blaADC-51 gene in ATCC 17978 was deleted and replaced with an apramycin resistance cassette using the recombineering method described by Tucker et al.. Primers used for this deletion were: Del AmpC-apra.For: […]; and Del AmpC-apra.Rev: […]. The correct deletion mutant was confirmed using PCR and sequencing.
(§4) Testing of susceptibility to standard antibiotics was performed with broth microdilution according to CLSI guidelines. MICs for CAZ, CTX, FEP, and IMI were determined using cation-adjusted Mueller–Hinton broth according to CLSI methods, and CR167 or 6b was used at a fixed concentration of 10 mg/L. All MICs were interpreted according to the 2022 Clinical and Laboratory Standards Institute (CLSI) guidelines.

[2] = tested on: clinical A. baumannii isolate PR378 (OXA-24, OXA-65, TEM-1); assay: Antimicrobial susceptibility testing, clinical isolate, broth microdilution; details: Acinetobacter baumannii
Experimental: (§5) Clinical A. baumannii isolates containing ADC-33 or OXA-24/-40 in combination with various other well-defined β-lactamases were also tested against CR167 and 6b (Table 5).
(§6) The clinical A. baumannii isolates used to test the β-lactamase inhibitors were selected from a previously well-characterized collection in our lab. They were chosen as they had either ADC-33 and/or OXA-24 in combination with other known β-lactamases (for specific combinations, see Table 5).
as §4

[3] = tested on: clinical A. baumannii isolate PR328 (OXA-23, OXA-82, ADC-33); assay: as above; details: Acinetobacter baumannii
Experimental: as §5, §6, §4

[4] = tested on: clinical A. baumannii isolate PR408 (OXA-24, OXA-71, ADC-212); assay: as above; details: Acinetobacter baumannii
Experimental: as §5, §6, §4

[5] = tested on: clinical A. baumannii isolate PR323 (OXA-24, OXA-65, ADC-218); assay: as above; details: Acinetobacter baumannii
Experimental: as §5, §6, §4

[6] = tested on: clinical A. baumannii isolate PR396 (OXA-82, ADC-33); assay: as above; details: Acinetobacter baumannii, inhibitor at 10 mg/L
Experimental: as §5, §6, §4

[7] = tested on: clinical A. baumannii isolate PR474 (OXA-23, OXA-24, OXA-65, ADC-218); assay: as above; details: Acinetobacter baumannii
Experimental: as §5, §6, §4

[8] = tested on: clinical A. baumannii isolate PR462 (OXA-24, OXA-65, ADC-214); assay: as above; details: Acinetobacter baumannii, inhibitor at 10 mg/L
Experimental: as §5, §6, §4

[9] = tested on: E. coli DH10B, ADC-33 in pBCSK-; assay: Antimicrobial susceptibility testing, broth microdilution; details: Escherichia coli
Experimental: (§7) Based upon the inhibitor kinetics (Ki determinations), CR167 and the sulfonamidoboronic acid 6b were tested against E. coli strains expressing ADC-7 and ADC-33 cloned into pBCSK- (DH10B) (Table 3).
(§8) blaADC-7 pBCSK- and blaADC-33 pBCSK- were cloned and expressed in E. coli DH10B cells as previously described.
as §4

[10] = tested on: E. coli DH10B, ADC-7 in pBCSK-; assay: as above; details: Escherichia coli
Experimental: as §7, §8, §4

[11] = tested on: A. baumannii ATCC 17978 native ADC KO, ADC-33 pQF1266; assay: as above; details: Acinetobacter baumannii
Experimental: as §1
Plasmid pBCSK- containing the blaADC-33 gene was digested with PvuII, which released the blaADC-33 gene, along with the lac promoter, which drives expression. This PvuII fragment was cloned into the SmaI site of the pQF1266 plasmid.
as §2, §3, §4

[12] = ATCC17978, read-out: MIC of CAZ with BLI
[13] = ATCC17978, read-out: MIC of CTX with BLI
[14] = ATCC17978, read-out: MIC of FEP with BLI
[15] = ATCC17978, read-out: MIC of IMI with BLI
[16] = inhibitor at 10 mg/L, PR378, read-out: MIC of CAZ with BLI
[17] = inhibitor at 10 mg/L, PR378, read-out: MIC of CTX with BLI
[18] = inhibitor at 10 mg/L, PR328, read-out: MIC of CAZ with BLI
[19] = inhibitor at 10 mg/L, PR408, read-out: MIC of CAZ with BLI
[20] = inhibitor at 10 mg/L, PR408, read-out: MIC of CTX with BLI
[21] = inhibitor at 10 mg/L, PR323, read-out: MIC of CAZ with BLI
[22] = inhibitor at 10 mg/L, PR323, read-out: MIC of CTX with BLI
[23] = inhibitor at 10 mg/L, PR474, read-out: MIC of CAZ with BLI
[24] = inhibitor at 10 mg/L, PR474, read-out: MIC of CTX with BLI

Row | SMILES | MIC [1, 12] [µg/mL] | MIC [1, 13] [µg/mL] | MIC [1, 14] [µg/mL] | MIC [1, 15] [µg/mL] | MIC [2, 16] [µg/mL] | MIC [2, 17] [µg/mL] | MIC ([3]; read-out: MIC of IMI with BLI) [µg/mL] | MIC [3, 18] [µg/mL] | MIC ([4]; read-out: MIC of IMI with BLI) [µg/mL] | MIC [4, 19] [µg/mL] | MIC [4, 20] [µg/mL] | MIC ([5]; read-out: MIC of IMI with BLI) [µg/mL] | MIC [5, 21] [µg/mL] | MIC [5, 22] [µg/mL] | MIC ([6]; read-out: MIC of CAZ with BLI) [µg/mL] | MIC ([6]; read-out: MIC of CTX with BLI) [µg/mL] | MIC ([6]; read-out: MIC of IMI with BLI) [µg/mL] | MIC ([7]; read-out: MIC of IMI with BLI) [µg/mL] | MIC [7, 23] [µg/mL] | MIC [7, 24] [µg/mL] | further results
1 | C[C@@H](NS(=O)(=O)Cc1cccc(C(=O)O)c1)B(O)O [6b] | 8 | 16 | 32 | 128 | 32 | 64 | 128 | 2050 | 128 | 512 | 1020 | 128 | 4100 | 2050 | 2050 | 512 | 64 | 128 | 4100 | 2050 | MIC ([2]; inhibitor at 10 mg/L, PR378, read-out: MIC of IMI with BLI): 256 µg/mL; MIC ([3]; inhibitor at 10 mg/L, PR328, read-out: MIC of CTX with BLI): 256 µg/mL; MIC ([8]; read-out: MIC of CAZ with BLI): 256 µg/mL; MIC ([8]; read-out: MIC of CTX with BLI): 512 µg/mL; MIC ([8]; read-out: MIC of IMI with BLI): 64 µg/mL; MIC ([9]; read-out: MIC of CAZ with BLI): 64 µg/mL; MIC ([9]; read-out: MIC of CTX with BLI): 4 µg/mL; MIC ([10]; read-out: MIC of CAZ with BLI): 4 µg/mL; MIC ([10]; read-out: MIC of CTX with BLI): 2 µg/mL; MIC ([10]; read-out: MIC of FEP with BLI): 0.12 µg/mL; MIC [11, 12]: 64 µg/mL; MIC [11, 13]: 32 µg/mL; MIC [11, 14]: 4 µg/mL
2 | O=C(O)c1cccc(CS(=O)(=O)NCB(O)O)c1 [CR167] | 8 | 16 | 32 | 128 | 32 | 64 | 128 | 1020 | 128 | 512 | 1020 | 128 | 4100 | 2050 | 1020 | 256 | 64 | 128 | 4100 | 2050 | MIC ([2]; read-out: MIC of IMI with BLI): 128 µg/mL; MIC ([3]; read-out: MIC of CTX with BLI): 128 µg/mL; MIC ([8]; read-out: MIC of CAZ with BLI): 64 µg/mL; MIC ([8]; read-out: MIC of CTX with BLI): 256 µg/mL; MIC ([8]; read-out: MIC of IMI with BLI): 64 µg/mL; MIC ([9]; read-out: MIC of CAZ with BLI): 64 µg/mL; MIC ([9]; read-out: MIC of CTX with BLI): 2 µg/mL; MIC ([10]; read-out: MIC of CAZ with BLI): 4 µg/mL; MIC ([10]; read-out: MIC of CTX with BLI): 2 µg/mL; MIC ([10]; read-out: MIC of FEP with BLI): 0.12 µg/mL; MIC [11, 12]: 32 µg/mL; MIC [11, 13]: 16 µg/mL; MIC [11, 14]: 4 µg/mL
